Reference: US20220324835A1 (Nurix Therapeutics, Inc., priority 2018, published 2022)
Read-outs that look alike come from different tables or passages of the source.

Tested on: primary human total T-cells
Assay: T-cell activation assessed by cytokine secretion (GM-CSF, IFNγ, TNFα)
Type: cell-based
Description: Peripheral blood mononuclear cells (PBMC) were obtained either: 1) by using Ficoll-Paque™ (GE Healthcare) for separation of peripheral blood hematopoietic cells from buffy coats of healthy human donors; or 2) directly from FeukoPak donations. Total human primary T-cells were isolated from the PMBCs utilizing negative selection with commercial kits following the manufacturer's protocol (Miltenyi Catalog #130-096-535 (i.e., cocktail of antibodies against surface markers CD14, CD15, CD16, CD19, CD34, CD36, CD56, CD123 and CD235a are incubated with the PBMCs before passing the samples by magnetic beads for removal of cells expressing those surface markers) or StemCells Catalog #17951) to yield >95% CD3+ cells as assessed by flow cytometry. For measurement of cell proliferation, cells were labeled with Cell Trace Violet (Invitrogen) following manufacturer's protocol prior to activation by stimulation with anti-CD3 antibody alone or in combination with anti-CD28 antibody. The Cbl-b inhibitor was added to 1×10^5 cells per well at multiple concentrations (e.g., 10 μM, 1.11 μM, or 0.123 μM) with a final DMSO concentration of <0.1%. The plate was incubated for one hour at 37° C. in 5% CO2. Following incubation with the Cbl-b inhibitor, primary human total T-cells were stimulated with either plate bound anti-CD3 antibody (OKT3) alone or plate bound anti-CD3 antibody (OKT3) with soluble anti-CD28 antibody (28.2) (Life Technologies). To prepare plates with plate bound anti-CD3 antibody (OKT3), 96-well round bottom tissue culture plates were coated with 100 μl of anti-CD3 antibody (OKT3) at 10 μg/mL for 4 hours at 37° C. 5% CO2 in phosphate buffered saline (PBS). The plates were washed with PBS prior to adding the cells with or without soluble anti-CD28 antibody (28.2) to each well at a final concentration of 5 μg/mL. Cells were stimulated for 48 hours prior to harvesting the cell free supernatant and staining the cell population for surface marker assessment by flow cytometry. Supernatants were analyzed for cytokine secretion (e.g., GM-CSF, IFNγ and TNFα) by ELISA (R&D Systems, Peprotech or Life Technologies) or Luminex multiplex kits (Procarta Life Technologies) following manufacturer's protocol. Cells were stained with anti-CD69 (BD Biosciences) to assess levels of surface markers of activation. Proliferation was measured by flow cytometry and data was analyzed with FlowJo v7.6.5 or v10. Readouts were reported as fold change over baseline. In some embodiments, baseline was the measurement obtained from total human T-cells stimulated with anti-CD3 antibody alone, wherein the cells were not incubated with a Cbl-b inhibitor. In some embodiments, baseline was the measurement obtained from total human T-cells stimulated with anti-CD3 antibody and anti-CD28 antibody, where the cells were not incubated with a Cbl-b inhibitor.
Cbl-b inhibitors were tested to determine their ability to induce or enhance secretion of cytokines from T-cells (e.g., GM-CSF, IFNγ and TNFα) and/or surface expression of cell surface markers on T-cells (e.g., CD69) that is indicative of T-cell activation. Cbl-b inhibitors were also tested to determine their ability to induce or enhance T-cell proliferation. Cbl-b inhibitors were tested for their effects on T-cell activation in the presence of costimulation and where conditions were suboptimal for priming.
Readouts for T-cell activation were reported as fold change over baseline. Baseline for this study was the measurement obtained from total human T-cells stimulated with anti-CD3 antibody alone or anti-CD3 antibody in combination with soluble anti-CD28 antibody, where the cells were not incubated with a Cbl-b inhibitor. For T-cells stimulated with anti-CD3/anti-CD28 or with anti-CD3 alone changes greater than 1,2-fold over baseline for % positive CD69 staining and greater than 2-fold over baseline for % total proliferating cells were considered a significant and positive response (Table 4a). […]

[1] = CD3/CD28 stimulation, read-out: GM-CSF secretion
[2] = CD3/CD28 stimulation, read-out: IFNγ secretion
[3] = CD3/CD28 stimulation, read-out: TNFα secretion
[4] = CD3 alone stimulation, read-out: GM-CSF secretion
[5] = CD3 alone stimulation, read-out: IFNγ secretion
[6] = CD3 alone stimulation, read-out: TNFα secretion

| SMILES | fold induction at 1.11 µM [1] | fold induction at 1.11 µM [2] | fold induction at 1.11 µM [3] | fold induction at 10 µM [1] | fold induction at 10 µM [2] | fold induction at 10 µM [3] | fold induction at 1.11 µM [4] | fold induction at 1.11 µM [5] | fold induction at 1.11 µM [6] | fold induction at 10 µM [4] | fold induction at 10 µM [5] | fold induction at 10 µM [6] |
| --- | --- | --- | --- | --- | --- | --- | --- | --- | --- | --- | --- | --- |
| C[C@H](Cc1nncn1C)c1cccc(N2Cc3c(cc(CN4CC(O)C4)cc3C(F)(F)F)C2=O)c1 [Compound 393, (R)-6-((3-hydroxyazetidin-1-yl)methyl)-2-(3-(1-(4-methyl-4H-1,2,4-triazol-3-yl)propan-2-yl)phenyl)-4-(trifluoromethyl)isoindolin-1-one] | ≤ 1.5 | 2.01 to 3 | ≤ 1.5 | 1.51 to 2 | > 4 | 1.51 to 2 | ≤ 1.5 | < 2 | ≤ 1.5 | ≤ 1.5 | < 2 | ≤ 1.5 |
| Cn1cnnc1C(F)(F)[C@](C)(F)c1cccc(N2Cc3c(cc(C(=O)N4CC[C@H](O)C4)cc3C(F)(F)F)C2=O)c1 [Compound 438, 6-((S)-3-hydroxypyrrolidine-1-carbonyl)-2-(3-((R)-1,1,2-trifluoro-1-(4-methyl-4H-1,2,4-triazol-3-yl)propan-2-yl)phenyl)-4-(trifluoromethyl)isoindolin-1-one] | 1.51 to 2 | < 2 | ≤ 1.5 | 2.01 to 4 | 2.01 to 3 | 2.01 to 4 | ≤ 1.5 | < 2 | 2.01 to 4 | 2.01 to 4 | 2.01 to 3 | 1.51 to 2 |
| COC1CN(Cc2cc3c(c(C(F)(F)F)c2)CN(c2cccc([C@@](C)(F)C(F)(F)c4nncn4C)c2)C3=O)C1 [Compound 452, (R)-6-((3-methoxyazetidin-1-yl)methyl)-2-(3-(1,1,2-trifluoro-1-(4-methyl-4H-1,2,4-triazol-3-yl)propan-2-yl)phenyl)-4-(trifluoromethyl)isoindolin-1-one] | 2.01 to 4 | < 2 | 1.51 to 2 | 2.01 to 4 | 2.01 to 3 | 2.01 to 4 | 1.51 to 2 | 3.01 to 4 | ≤ 1.5 | 2.01 to 4 | 3.01 to 4 | 1.51 to 2 |
| C[C@H](c1cc2c(c(C(F)(F)F)c1)CN(c1cccc(C3(Cc4nncn4C)COC3)c1)C2=O)N1CC[C@H](F)C1 [Compound 413, 6-((R)-1-((S)-3-fluoropyrrolidin-1-yl)ethyl)-2-(3-(3-((4-methyl-4H-1,2,4-triazol-3-yl)methyl)oxetan-3-yl)phenyl)-4-(trifluoromethyl)isoindolin-1-one] | 2.01 to 4 | < 2 | 2.01 to 4 | > 4 | 3.01 to 4 | 2.01 to 4 | 1.51 to 2 | 2.01 to 3 | 1.51 to 2 | 2.01 to 4 | > 4 | 1.51 to 2 |
| Cc1cc(C(=O)Nc2cccc([C@@H](C)Cc3nncn3C)c2)nc(C2CC2)n1 [Compound 325, (S)-2-Cyclopropyl-6-methyl-N-(3-(1-(4-methyl-4H-1,2,4-triazol-3-yl)propan-2-yl)phenyl)pyrimidine-4-carboxamide] | 1.51 to 2 | 3.01 to 4 | ≤ 1.5 | 2.01 to 4 | > 4 | 2.01 to 4 | ≤ 1.5 | < 2 | ≤ 1.5 | 1.51 to 2 | < 2 | ≤ 1.5 |
| Cn1cnnc1C(F)(F)[C@](C)(F)c1cccc(N2Cc3c(cc(CN4CC[C@@H](C#N)C4)cc3C(F)(F)F)C2=O)c1 [Compound 455, (R)-1-((3-oxo-2-(3-((R)-1,1,2-trifluoro-1-(4-methyl-4H-1,2,4-triazol-3-yl)propan-2-yl)phenyl)-7-(trifluoromethyl)isoindolin-5-yl)methyl)pyrrolidine-3-carbonitrile] | 2.01 to 4 | > 4 | 2.01 to 4 | > 4 | > 4 | 2.01 to 4 | 1.51 to 2 | 2.01 to 3 | ≤ 1.5 | 2.01 to 4 | 3.01 to 4 | 2.01 to 4 |
| Cc1n[nH]c(C)c1-c1cc2c(c(C(F)(F)F)c1)CN(c1cccc(C3(Cc4nncn4C)COC3)c1)C2=O [Compound 385, 6-(3,5-dimethyl-1H-pyrazol-4-yl)-2-(3-{3-[(4-methyl-4H-1,2,4-triazol-3-yl)methyl]oxetan-3-yl}phenyl)-4-(trifluoromethyl)-2,3-dihydro-1H-isoindol-1-one] | 1.51 to 2 | < 2 | 1.51 to 2 | 2.01 to 4 | > 4 | 2.01 to 4 | 1.51 to 2 | < 2 | ≤ 1.5 | 2.01 to 4 | < 2 | 1.51 to 2 |
| Cn1cnnc1CC1(c2cccc(N3Cc4c(cc(CN5CC(F)C5)cc4C(F)(F)F)C3=O)c2)COC1 [Compound 415, 6-((3-fluoroazetidin-1-yl)methyl)-2-(3-(3-((4-methyl-4H-1,2,4-triazol-3-yl)methyl)oxetan-3-yl)phenyl)-4-(trifluoromethyl)isoindolin-1-one] | 2.01 to 4 | 3.01 to 4 | 2.01 to 4 | > 4 | > 4 | 2.01 to 4 | 2.01 to 4 | 2.01 to 3 | 1.51 to 2 | > 4 | > 4 | 1.51 to 2 |
| C[C@H](Cc1nncn1C)c1cccc(N2Cc3c(cccc3C(F)(F)F)C2=O)c1 [Compound 255a, (R)-2-(3-(1-(4-methyl-4H-1,2,4-triazol-3-yl)propan-2-yl)phenyl)-4-(trifluoromethyl)isoindolin-1-one] | ≤ 1.5 | 3.01 to 4 | ≤ 1.5 | 1.51 to 2 | > 4 | 1.51 to 2 | ≤ 1.5 | < 2 | ≤ 1.5 | ≤ 1.5 | < 2 | ≤ 1.5 |
| Cc1cc(C(=O)Nc2cccc(C3(Cc4nncn4C)COC3)c2)nc(C2CC2)n1 [Compound 336, 2-cyclopropyl-6-methyl-N-(3-(3-((4-methyl-4H-1,2,4-triazol-3-yl)methyl)oxetan-3-yl)phenyl)pyrimidine-4-carboxamide] | 2.01 to 4 | 2.01 to 3 | 2.01 to 4 | > 4 | > 4 | 2.01 to 4 | 2.01 to 4 | 2.01 to 3 | 1.51 to 2 | 2.01 to 4 | > 4 | 1.51 to 2 |
